Measured values published in ChEMBL document CHEMBL3045229, “Molluscicidal and insecticidal potential of monoterpenes on the white garden snail, Theba pisana (Muller) and the cotton leafworm, Spodoptera littoralis (Boisduval)” (2010).
≈ marks a conversion by molar mass, not a printed value. Calls of active or inactive are those of the source. The rule behind the calls is not given here.

system: Spodoptera littoralis; assay: Fumigant insecticidal activity against cotton leafworm Spodoptera littoralis third-instar larvae fed on fresh castor bean leaves assessed as insect mortality after 24 hr; format: functional; conditions: not given

| Compound | LC50 |
| --- | --- |
| CC1(C)C(=O)[C@@]2(C)CC[C@H]1C2 [(L)-FENCHONE] | 2.27 µg/mL (≈ 14.9 µM) |
| C=C(C)[C@@H]1CC=C(C)C(=O)C1 [L-CARVONE] | 19.5 µg/mL (≈ 130 µM) |
| CC(C)c1ccc(C=O)cc1 [CUMINALDEHYDE] | > 100 µg/mL |
| CC(C)=CCC/C(C)=C/CO [GERANIOL] | > 100 µg/mL |
| CC1CCC(C(C)C)C(O)C1 (configuration not stated) [MENTHOL] | 9.36 µg/mL (≈ 59.9 µM) |
| CC12CCC(CC1)C(C)(C)O2 [EUCALYPTOL] | 4.34 µg/mL (≈ 28.1 µM) |
| C=C(C)[C@@H]1CC=C(C)CC1 [(-)-LIMONENE] | 11.4 µg/mL (≈ 83.4 µM) |
| CC12CCC(CC1=O)C2(C)C (configuration not stated) [CAMPHOR] | 5.61 µg/mL (≈ 36.9 µM) |
| C=CC(=C)CCC=C(C)C [MYRCENE] | > 100 µg/mL |
| C=C1C2CCC(C2)C1(C)C (configuration not stated) [CAMPHENE] | > 100 µg/mL |

system: Spodoptera littoralis; assay: Contact insecticidal activity against cotton leafworm Spodoptera littoralis third-instar larvae exposed to 1 mg/larva compound application through dorsum of larvae followed by feeding on fresh castor bean leaves assessed as insect mortality after 24 hr; format: functional, Skin of body; conditions: not given

| Compound | mortality |
| --- | --- |
| CC(C)c1ccc(C=O)cc1 [CUMINALDEHYDE] | 70% |
| CC(C)=CCC/C(C)=C/CO [GERANIOL] | 76.7% |

same assay, conditions: Skin of body

| Compound | Activity |
| --- | --- |
| CC1(C)C(=O)[C@@]2(C)CC[C@H]1C2 [(L)-FENCHONE] | Active |
| C=C(C)[C@@H]1CC=C(C)C(=O)C1 [L-CARVONE] | Active |
| CC1CCC(C(C)C)C(O)C1 (configuration not stated) [MENTHOL] | Active |
| CC12CCC(CC1)C(C)(C)O2 [EUCALYPTOL] | Active |
| C=C(C)[C@@H]1CC=C(C)CC1 [(-)-LIMONENE] | Active |
| CC12CCC(CC1=O)C2(C)C (configuration not stated) [CAMPHOR] | Active |
| C=CC(=C)CCC=C(C)C [MYRCENE] | Active |
| C=C1C2CCC(C2)C1(C)C (configuration not stated) [CAMPHENE] | Active |
| C=C[C@@](C)(O)CC=C(C)C [(-)-LINALOOL] | Active |

system: Theba pisana; assay: Contact molluscicidal activity against Theba pisana (white garden snail ) exposed to compound throgh application to surface of snail body inside shell assessed as compound level per snail causing snail mortality after 24 hr; format: functional; conditions: not given

| Compound | LD50 |
| --- | --- |
| CC1(C)C(=O)[C@@]2(C)CC[C@H]1C2 [(L)-FENCHONE] | 135.36 µg |
| C=C(C)[C@@H]1CC=C(C)C(=O)C1 [L-CARVONE] | 132.18 µg |
| CNC(=O)Oc1cc(C)c(SC)c(C)c1 [METHIOCARB] | 188.68 µg |
| CC(C)c1ccc(C=O)cc1 [CUMINALDEHYDE] | 28.37 µg |
| CC(C)=CCC/C(C)=C/CO [GERANIOL] | 42.29 µg |
| CC1CCC(C(C)C)C(O)C1 (configuration not stated) [MENTHOL] | 99.44 µg |
| CC12CCC(CC1)C(C)(C)O2 [EUCALYPTOL] | 223.44 µg |
| C=C(C)[C@@H]1CC=C(C)CC1 [(-)-LIMONENE] | 60.27 µg |
| CC12CCC(CC1=O)C2(C)C (configuration not stated) [CAMPHOR] | 89.15 µg |
| C=CC(=C)CCC=C(C)C [MYRCENE] | >1000 µg |
| C=C1C2CCC(C2)C1(C)C (configuration not stated) [CAMPHENE] | >1000 µg |

system: Theba pisana; assay: Fumigant molluscicidal activity against Theba pisana (white garden snail) assessed as snail mortality after 24 hr; format: functional; conditions: not given

| Compound | LC50 |
| --- | --- |
| CC1(C)C(=O)[C@@]2(C)CC[C@H]1C2 [(L)-FENCHONE] | 2.51 µg/mL (≈ 16.5 µM) |
| C=C(C)[C@@H]1CC=C(C)C(=O)C1 [L-CARVONE] | 27 µg/mL (≈ 180 µM) |
| CC(C)c1ccc(C=O)cc1 [CUMINALDEHYDE] | > 100 µg/mL |
| CC(C)=CCC/C(C)=C/CO [GERANIOL] | > 100 µg/mL |
| CC1CCC(C(C)C)C(O)C1 (configuration not stated) [MENTHOL] | > 100 µg/mL |
| CC12CCC(CC1)C(C)(C)O2 [EUCALYPTOL] | 4.17 µg/mL (≈ 27 µM) |
| C=C(C)[C@@H]1CC=C(C)CC1 [(-)-LIMONENE] | 8.39 µg/mL (≈ 61.6 µM) |
| CC12CCC(CC1=O)C2(C)C (configuration not stated) [CAMPHOR] | 7.98 µg/mL (≈ 52.4 µM) |
| C=CC(=C)CCC=C(C)C [MYRCENE] | 3.88 µg/mL (≈ 28.5 µM) |
| C=C1C2CCC(C2)C1(C)C (configuration not stated) [CAMPHENE] | 33.5 µg/mL (≈ 246 µM) |
